Data: patent US20240384268A1, “Oligonucleotides” (Hudson Institute of Medical Research, priority 2021, published 2024)
In the oligonucleotide strings, read from the 5' end, every base follows the letter of its sugar. An asterisk marks phosphorothioate; unmarked linkages are phosphodiester. Other units and linkages are bracketed, terminal groups are in braces. A string of capitals states the bases alone. m = 2'-O-methyl

Target: T1, human TLR9 (Homo sapiens, UniProt Q9NR96)
T1 construct: HA; host or cells: 293XL-hTLR9-HA (HEK293)
T1 sequence (Q9NR96 26-1032): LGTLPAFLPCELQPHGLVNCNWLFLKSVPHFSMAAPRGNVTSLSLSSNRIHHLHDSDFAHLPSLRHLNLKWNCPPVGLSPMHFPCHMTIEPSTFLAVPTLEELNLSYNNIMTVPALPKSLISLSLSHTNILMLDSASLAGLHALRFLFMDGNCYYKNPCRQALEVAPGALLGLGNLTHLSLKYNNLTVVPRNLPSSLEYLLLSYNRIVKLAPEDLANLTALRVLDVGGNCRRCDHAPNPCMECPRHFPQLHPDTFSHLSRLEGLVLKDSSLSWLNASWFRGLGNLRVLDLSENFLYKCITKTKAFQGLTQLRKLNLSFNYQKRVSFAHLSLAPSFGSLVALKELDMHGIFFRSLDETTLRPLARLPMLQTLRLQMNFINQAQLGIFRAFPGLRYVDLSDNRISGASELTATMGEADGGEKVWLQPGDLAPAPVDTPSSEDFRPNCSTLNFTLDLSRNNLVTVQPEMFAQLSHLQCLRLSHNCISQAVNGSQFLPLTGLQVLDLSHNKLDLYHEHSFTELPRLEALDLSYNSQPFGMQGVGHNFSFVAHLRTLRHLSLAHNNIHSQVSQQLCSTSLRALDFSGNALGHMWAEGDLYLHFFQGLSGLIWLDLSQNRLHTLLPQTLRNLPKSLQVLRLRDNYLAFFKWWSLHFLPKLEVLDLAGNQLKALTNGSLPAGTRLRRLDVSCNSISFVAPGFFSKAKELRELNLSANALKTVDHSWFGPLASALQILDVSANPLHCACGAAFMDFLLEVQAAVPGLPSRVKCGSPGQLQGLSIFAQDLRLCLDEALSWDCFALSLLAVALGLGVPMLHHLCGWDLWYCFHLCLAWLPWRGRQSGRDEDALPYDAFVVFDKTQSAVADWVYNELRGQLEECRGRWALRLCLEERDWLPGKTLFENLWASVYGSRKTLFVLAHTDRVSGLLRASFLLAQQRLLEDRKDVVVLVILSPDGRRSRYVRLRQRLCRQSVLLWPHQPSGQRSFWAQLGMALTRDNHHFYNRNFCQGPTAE
Experiment: HEK-TLR9 NF-κB-luciferase reporter, ODN2006 stimulation
Assay type: cell-based
Details: 3mer 2'OMe ASO at 2 uM; HEK-TLR9; value relative to Ligand only = 1.000, NT = 0.000

Row | Substance | TLR9 2 uM
1 | AAU (antisense mA*mA*mU) | 0.884
2 | ACU (antisense mA*mC*mU) | 0.996
3 | AGU (antisense mA*mG*mU) | 0.840
4 | AUA (antisense mA*mU*mA) | 0.944
5 | AUG (mA*mU*mG) | 0.878
6 | AUU (mA*mU*mU) | 0.864
7 | CAU (mC*mA*mU) | 0.921
8 | CCU (mC*mC*mU) | 1.180
9 | CGU (mC*mG*mU) | 1.237
10 | CUA (mC*mU*mA) | 1.182
11 | CUC (mC*mU*mC) | 0.966
12 | CUG (mC*mU*mG) | 0.948
13 | GCU (mG*mC*mU) | 1.429
14 | GGU (mG*mG*mU) | 1.177
15 | UAA (mU*mA*mA) | 1.176
16 | UAC (mU*mA*mC) | 0.997
17 | UAG (mU*mA*mG) | 0.977

Row | Substance | TLR9 2 uM
18 | UAU (mU*mA*mU) | 1.145
19 | UCC (mU*mC*mC) | 1.106
20 | UCU (mU*mC*mU) | 0.876
21 | UGC (mU*mG*mC) | 1.198
22 | UGU (mU*mG*mU) | 1.085
23 | UUA (mU*mU*mA) | 0.912
24 | UUC (mU*mU*mC) | 0.770
25 | UUG (listed as RNA, chemistry not fully specified) | 0.816
26 | UUU (mU*mU*mU) | 0.936
27 | dA*dA*dA (DNA AAA; listed as DNA, chemistry not fully specified) | 0.845
28 | dA*dA*dC (DNA AAC; listed as DNA, chemistry not fully specified) | 0.931
29 | dA*dA*dG (DNA AAG; listed as DNA, chemistry not fully specified) | 0.870
30 | dA*dC*dA (DNA ACA; listed as RNA, chemistry not fully specified) | 1.042
31 | dA*dG*dA (DNA AGA; listed as DNA, chemistry not fully specified) | 0.848
32 | dA*dG*dC (DNA AGC; listed as DNA, chemistry not fully specified) | 0.749
33 | dC*dA*dA (CAA; listed as DNA, chemistry not fully specified) | 0.917

Same assay, conditions: ASO 100 nM; relative to ODN2006 only, given as fraction

Row | Substance | TLR9 100 nM (averaged NF-κB-Luciferase level relative to ODN2006 condition)
34 | ACACTTCGTGGGGTCC (antisense; LNA-modified, pattern not given here) [HPRT LNA-665 V1] | 0.241
35 | CAACACTTCGTGGGGT (antisense; LNA-modified, pattern not given here) [HPRT LNA-667 V1] | 0.733
36 | CCAAGATCAGCAGTCT (antisense; LNA-modified, pattern not given here) [CTNN2B-2341 LNA KL] | 1.424
37 | CCATCCATGAGGTCCT (antisense; LNA-modified, pattern not given here) [CTNN2B-2545 LNA V1] | 1.383
38 | GATAGCACCTTCAGCA (antisense; LNA-modified, pattern not given here) [CTNN2B-1294 LNA KL] | 0.804
39 | GCAGGCTCAGTGATGT (antisense; LNA-modified, pattern not given here) [CTNN2B-1642 LNA V1] | 1.036
40 | GCATCCACCACGTCGT (antisense; LNA-modified, pattern not given here) [EGFR-3267 LNA V1] | 0.556
41 | GCCATCCACTTGATAG (antisense; LNA-modified, pattern not given here) [EGFR-2874 LNA V1] | 0.772
42 | GCCATGCTGGCTCGGA (antisense; LNA-modified, pattern not given here) [CAMSAP1-2584 LNA V1] | 0.879
43 | GCCATGTTTCTTCTTG (antisense; LNA-modified, pattern not given here) [MB21D1-1248 LNA KL] | 0.163
44 | GGCTGGAATCCGAGTT (antisense; LNA-modified, pattern not given here) [EGFR-4705 LNA KL] | 1.051
45 | GGTTACGGCTCAGTAT (antisense; LNA-modified, pattern not given here) [CAMSAP1-4295 LNA KL] | 0.943
46 | GTATCGAAAGAGTCTG (antisense; LNA-modified, pattern not given here) [EGFR-3908 LNA KL] | 1.429
47 | GTCCCCTGTTGACTGG (antisense; LNA-modified, pattern not given here) [HPRT LNA-489 KL] | 0.387
48 | GTCTTGGCTTCGTGGA (antisense; LNA-modified, pattern not given here) [MB21D1-522 LNA V1] | 0.745
49 | GTGTCTGGAAGCTTCC (antisense; LNA-modified, pattern not given here) [CTNN2B-809 LNA V1] | 0.493
50 | GTTCAGTCCTGTCCAT (antisense; LNA-modified, pattern not given here) [HPRT LNA-292 V1] | 1.081
51 | TCCAACACTTCGTGGG (antisense; LNA-modified, pattern not given here) [HPRT LNA-669 V1] | 0.623
52 | TCGTAGTTGCTTCCTA (antisense; LNA-modified, pattern not given here) [MB21D1-1181 LNA KL] | 0.987
53 | TGATGGCCTCCCATCT (antisense; LNA-modified, pattern not given here) [HPRT LNA-332 V1] | 0.770
54 | TGCACACTTCGTACCC (antisense; LNA-modified, pattern not given here) [CAMSAP1-4916 LNA V1] | 0.283
55 | TGGCCTCCCATCTCCT (antisense; LNA-modified, pattern not given here) [HPRT LNA-329 V1] | 0.743
56 | TGTGATGGCCTCCCAT (antisense; LNA-modified, pattern not given here) [HPRT LNA-334 V1] | 0.818
57 | TTCGTGGGGTCCTTTT (antisense; LNA-modified, pattern not given here) [HPRT LNA-661 V1] | 0.963
58 | TTTTGGCTGGGATCAA (antisense; LNA-modified, pattern not given here) [CAMSAP1-4697 LNA KL] | 0.985

Same assay, conditions: ASO 500 nM; relative to ODN2006 only, given as fraction

Row | Substance | TLR9 500 nM (averaged NF-κB-Luciferase level relative to ODN2006 condition)
59 | ACACTTCGTGGGGTCC (antisense; LNA-modified, pattern not given here) [HPRT LNA-665 V1] | 0.001
60 | CAACACTTCGTGGGGT (antisense; LNA-modified, pattern not given here) [HPRT LNA-667 V1] | 0.395
61 | CCAAGATCAGCAGTCT (antisense; LNA-modified, pattern not given here) [CTNN2B-2341 LNA KL] | 0.669
62 | CCATCCATGAGGTCCT (antisense; LNA-modified, pattern not given here) [CTNN2B-2545 LNA V1] | 0.476
63 | GATAGCACCTTCAGCA (antisense; LNA-modified, pattern not given here) [CTNN2B-1294 LNA KL] | 0.560
64 | GCAGGCTCAGTGATGT (antisense; LNA-modified, pattern not given here) [CTNN2B-1642 LNA V1] | 0.228
65 | GCATCCACCACGTCGT (antisense; LNA-modified, pattern not given here) [EGFR-3267 LNA V1] | 0.375
66 | GCCATCCACTTGATAG (antisense; LNA-modified, pattern not given here) [EGFR-2874 LNA V1] | 0.589
67 | GCCATGCTGGCTCGGA (antisense; LNA-modified, pattern not given here) [CAMSAP1-2584 LNA V1] | 0.147
68 | GCCATGTTTCTTCTTG (antisense; LNA-modified, pattern not given here) [MB21D1-1248 LNA KL] | 0.070
69 | GGCTGGAATCCGAGTT (antisense; LNA-modified, pattern not given here) [EGFR-4705 LNA KL] | 0.492
70 | GGTTACGGCTCAGTAT (antisense; LNA-modified, pattern not given here) [CAMSAP1-4295 LNA KL] | 0.400
71 | GTATCGAAAGAGTCTG (antisense; LNA-modified, pattern not given here) [EGFR-3908 LNA KL] | 0.647
72 | GTCCCCTGTTGACTGG (antisense; LNA-modified, pattern not given here) [HPRT LNA-489 KL] | 0.326
73 | GTCTTGGCTTCGTGGA (antisense; LNA-modified, pattern not given here) [MB21D1-522 LNA V1] | 0.392
74 | GTGTCTGGAAGCTTCC (antisense; LNA-modified, pattern not given here) [CTNN2B-809 LNA V1] | 0.613
75 | GTTCAGTCCTGTCCAT (antisense; LNA-modified, pattern not given here) [HPRT LNA-292 V1] | 0.382
76 | TCCAACACTTCGTGGG (antisense; LNA-modified, pattern not given here) [HPRT LNA-669 V1] | 0.473
77 | TCGTAGTTGCTTCCTA (antisense; LNA-modified, pattern not given here) [MB21D1-1181 LNA KL] | 0.224
78 | TGATGGCCTCCCATCT (antisense; LNA-modified, pattern not given here) [HPRT LNA-332 V1] | 0.153
79 | TGCACACTTCGTACCC (antisense; LNA-modified, pattern not given here) [CAMSAP1-4916 LNA V1] | 0.244
80 | TGGCCTCCCATCTCCT (antisense; LNA-modified, pattern not given here) [HPRT LNA-329 V1] | 0.277
81 | TGTGATGGCCTCCCAT (antisense; LNA-modified, pattern not given here) [HPRT LNA-334 V1] | 0.431
82 | TTCGTGGGGTCCTTTT (antisense; LNA-modified, pattern not given here) [HPRT LNA-661 V1] | 0.523
83 | TTTTGGCTGGGATCAA (antisense; LNA-modified, pattern not given here) [CAMSAP1-4697 LNA KL] | 0.169
